# Data: patent US10080751B2, “Systems and methods for treating bacterial infection” (priority 2016, dated 2018)
# Columns and labels:
# S. aureus strain AH1252 = test: Neutropenic rat lung infection model; assay type: in vivo; conditions: iclaprim 80 mg/kg
# Description: S. aureus strain AH1252, a thymidine knockout of the MRSA wild type AW6 strain, was utilized for this study. The bacterial strain was diluted in a 2% alginate buffer, which was added dropwise in a ratio of 1:5 into […] to form alginate beads. The alginate beads reduce the efficacy of bacterial clearance similar to that seen in the cystic fibrosis population. A 5.25×10^4 bacterial inoculum was administered to groups of 9 rats, intratracheally, with prepared alginate bacteria suspensions, under isoflurane anesthesia. […] Twelve hours after the last treatment, rats were euthanized and lungs collected for CFU determination.
# [1] = Single-dose ECG study in healthy human volunteers (1.6 and 3.2 mg/kg over 30 minutes); assay type: in vivo; conditions: 3.2 mg/kg infused over 30 minutes
# Description: Based on this, a single-dose ECG-study was conducted in healthy human volunteers, where 1.6 mg/kg and 3.2 mg/kg iclaprim was infused over 30 minutes. […] Maximal increases coincided with Cmax levels and were rapidly reversible. Weight-based dosing with 1.6 mg/kg was thus assessed as acceptable for clinical purposes, whereas weight-based dosing at 3.2 mg/kg was associated with relevant QTc prolongations (>60 msec) and nonspecific T-wave alterations, and was not used for further clinical studies.
# [2] = SC/BID 3 days, vancomycin 50 mg/kg
structure (smiles),measurement,setting,value
COc1cc(Cc2cnc(N)nc2N)c2c(c1OC)OC(C1CC1)C=C2 (racemic) [Iclaprim],72 hour lungs (CFU/gram of lung) log10CFU/Lung,S. aureus strain AH1252; [2],3.34 log10CFU/Lung
same,Change in CFUs from 2 hr.,S. aureus strain AH1252; [2],0.22 log 10 CFU
same,Survival >60 hrs,"S. aureus strain AH1252; SC/BID 3 days, vancomycin 50 mg/kg, 9 rats",9/9
same,survival compared to the infection controls,S. aureus strain AH1252; vancomycin 50 mg/kg SC/BID,increased survival
same,Change in CFUs from 72 hr.,"S. aureus strain AH1252; vs 72 hr infection controls, vancomycin 50 mg/kg SC/BID",−5.34 log 10 CFU
same,QTc prolongations,[1],> 60 ms
